Patent publication US5840684A, “Glycopeptide antibiotic derivatives” (Eli Lilly and Company, priority 1995, dated 1998)
Converted amounts (≈) assume the structure as drawn.

Tests used:
[1] = tested on: Staphylococcus aureus 491; assay: broth micro-dilution MIC; type: cell-based
Method: (§1) The MIC's were determined using a standard broth micro-dilution assay.

Entercoccus faecium 276 = assay: broth micro-dilution MIC; type: cell-based
Method: as §1

[2] = tested on: Entercoccus faecium 180-1; assay: broth micro-dilution MIC; type: cell-based
Method: as §1

[3] = tested on: Staphylococcus aureus X400; assay: broth micro-dilution MIC; type: cell-based
Method: as §1

[4] = tested on: Staphylococcus aureus 446; assay: broth micro-dilution MIC; type: cell-based
Method: as §1

[5] = tested on: Staphylococcus aureus X778; assay: broth micro-dilution MIC; type: cell-based
Method: as §1

[6] = tested on: Streptococcus pyogenes C203; assay: broth micro-dilution MIC; type: cell-based
Method: as §1

[7] = tested on: Staphylococcus aureus 489; assay: broth micro-dilution MIC; type: cell-based
Method: as §1

[8] = tested on: Staphylococcus aureus SA1199A; assay: broth micro-dilution MIC; type: cell-based
Method: as §1

[9] = tested on: Staphylococcus aureus SA1199; assay: broth micro-dilution MIC; type: cell-based
Method: as §1

[10] = tested on: Staphylococcus aureus 447; assay: broth micro-dilution MIC; type: cell-based
Method: as §1

[11] = tested on: vancomycin-resistant enterococci; assay: broth micro-dilution, mean geometric MIC; type: cell-based, Enterococcus faecium and Enterococcus faecalis; conditions: enterococci, 24-hour incubation
[12] = tested on: Staphylococcus aureus S13E; type: cell-based
Method: as §1

[13] = tested on: Staphylococcus aureus SA1199B; type: cell-based
Method: as §1

[14] = tested on: vancomycin-susceptible enterococci; assay: broth micro-dilution, mean geometric MIC; type: cell-based, Enterococcus faecium and Enterococcus faecalis; conditions: enterococci, 24-hour incubation
[15] = tested on: Staphylococcus haemolyticus 415; assay: broth micro-dilution MIC; type: cell-based
Method: (§2) The formula I compounds have in vitro and in vivo activity against Gram-positive pathogenic bacteria. The MIC's were determined using a standard broth micro-dilution assay.

[16] = tested on: Staphylococcus epidermidis 270; assay: broth micro-dilution MIC; type: cell-based
Method: as §2

[17] = tested on: Haemophilus influenzae RD; assay: broth micro-dilution MIC; type: cell-based; conditions: Haemophilus influenzae RD
Method: as §2

[18] = tested on: Streptococcus pneumoniae P1; assay: broth micro-dilution MIC; type: cell-based
Method: as §2

Entercoccus faecium 2041 = assay: broth micro-dilution MIC; type: cell-based; conditions: Entercoccus faecium 2041
Method: as §2

Entercoccus faecium 180 = assay: broth micro-dilution MIC; type: cell-based; conditions: Entercoccus faecium 180
Method: as §2

[19] = tested on: Staphylococcus haemolyticus 105; assay: broth micro-dilution MIC; type: cell-based
Method: as §2

[20] = tested on: Enterococcus gallinarum 245; assay: broth micro-dilution MIC; type: cell-based; conditions: Enterococcus gallinarum 245
Method: as §2

Row | SMILES | MIC [1] | MIC (Entercoccus faecium 276) | MIC [2] | MIC [3] | MIC [4] | MIC [5] | MIC [6] | MIC [7] | MIC [8] | MIC [9] | MIC [10] | mean geometric MIC, Vancomycin Resistant Strains [11] [µg/mL] | MIC [12] | MIC [13] | mean geometric MIC, Vancomycin Sensitive Strains [14] [µg/mL] | MIC [15] | MIC [16] | MIC [17] [µg/mL] | MIC [18] | MIC (Entercoccus faecium 2041) | other results
1 | CNC(CC(C)C)C(=O)NC1C(=O)NC(CC(N)=O)C(=O)NC2C(=O)NC3C(=O)NC(C(=O)NC(C(=O)O)c4cc(O)cc(O)c4-c4cc3ccc4O)C(OC3CC(C)(N)C(O)C(C)O3)c3ccc(c(Cl)c3)Oc3cc2cc(c3OC2OC(CO)C(O)C(O)C2OC2CC(C)(NCc3ccc(-c4ccccc4)cc3)C(O)C(C)O2)Oc2ccc(cc2)C1O (stereo not drawn) [Compound 185] | ≤ .06 µg/mL | ≤ .06 µg/mL | ≤ .06 µg/mL | ≤ .06 µg/mL | ≤ .06 µg/mL | ≤ .06 µg/mL | ≤ .06 µg/mL | ≤ .06 µg/mL | ≤ .06 µg/mL | ≤ .06 µg/mL | ≤ .06 µg/mL | 4.7 | ≤ .06 µg/mL | ≤ .06 µg/mL | 0.060 | ≤ .06 µg/mL | ≤ .06 µg/mL | 8 (≈ 4.64 µM) | ≤ .06 µg/mL | ≤ .06 µg/mL | MIC (Entercoccus faecium 180): 0.125 µg/mL (≈ 0.0725 µM); MIC [19]: ≤ .06 µg/mL; MIC [20]: ≤ .06 µg/mL
2 | CNC(CC(C)C)C(=O)NC1C(=O)NC(CC(N)=O)C(=O)NC2C(=O)NC3C(=O)NC(C(=O)NC(C(=O)O)c4cc(O)cc(O)c4-c4cc3ccc4O)C(OC3CC(C)(N)C(O)C(C)O3)c3ccc(c(Cl)c3)Oc3cc2cc(c3OC2OC(CO)C(O)C(O)C2OC2CC(C)(NCc3cccc(Oc4cccc(C(F)(F)F)c4)c3)C(O)C(C)O2)Oc2ccc(cc2Cl)C1O (stereo not drawn) [Compound 203] | 1 µg/mL (≈ 0.543 µM) | 0.5 µg/mL (≈ 0.271 µM) | ≤ 0.06 µg/mL | 1 µg/mL (≈ 0.543 µM) | 0.5 µg/mL (≈ 0.271 µM) | 1 µg/mL (≈ 0.543 µM) | ≤ 0.06 µg/mL | 0.5 µg/mL (≈ 0.271 µM) | 0.5 µg/mL (≈ 0.271 µM) | 2 µg/mL (≈ 1.09 µM) | 1 µg/mL (≈ 0.543 µM) | 1.0 | 2 µg/mL (≈ 1.09 µM) | 1 µg/mL (≈ 0.543 µM) | 0.036 | 2 µg/mL (≈ 1.09 µM) | 0.5 µg/mL (≈ 0.271 µM) | 16 (≈ 8.68 µM) | ≤ 0.06 µg/mL | 0.25 µg/mL (≈ 0.136 µM) | MIC (Entercoccus faecium 180): 0.125 µg/mL (≈ 0.0678 µM); MIC [19]: 1 µg/mL (≈ 0.543 µM); MIC [20]: 2 µg/mL (≈ 1.09 µM)
3 | CNC(CC(C)C)C(=O)NC1C(=O)NC(CC(N)=O)C(=O)NC2C(=O)NC3C(=O)NC(C(=O)NC(C(=O)O)c4cc(O)cc(O)c4-c4cc3ccc4O)C(OC3CC(C)(N)C(O)C(C)O3)c3ccc(c(Cl)c3)Oc3cc2cc(c3OC2OC(CO)C(O)C(O)C2OC2CC(C)(NCCCCCCCCOc3ccc(Oc4ccccc4)cc3)C(O)C(C)O2)Oc2ccc(cc2Cl)C1O (stereo not drawn) [Compound 202] | 4 µg/mL (≈ 2.12 µM) | 4 µg/mL (≈ 2.12 µM) | 0.5 µg/mL (≈ 0.265 µM) | 4 µg/mL (≈ 2.12 µM) | 4 µg/mL (≈ 2.12 µM) | 4 µg/mL (≈ 2.12 µM) | ≤ 0.06 µg/mL | 4 µg/mL (≈ 2.12 µM) | 2 µg/mL (≈ 1.06 µM) | 8 µg/mL (≈ 4.24 µM) | 8 µg/mL (≈ 4.24 µM) | 1.4 | 4 µg/mL (≈ 2.12 µM) | 8 µg/mL (≈ 4.24 µM) | 0.76 | 8 µg/mL (≈ 4.24 µM) | 4 µg/mL (≈ 2.12 µM) | 32 (≈ 16.9 µM) | ≤ 0.06 µg/mL | 1 µg/mL (≈ 0.529 µM) | MIC (Entercoccus faecium 180): 0.5 µg/mL (≈ 0.265 µM); MIC [19]: 4 µg/mL (≈ 2.12 µM); MIC [20]: 8 µg/mL (≈ 4.24 µM)
